Test results taken from US20240000860A1, “METHODS FOR TREATING AUTISM SPECTRUM DISORDER” (priority 2020, published 2024).
Marks after values point to notes of the source that are not given here.

How the values were obtained:
Type in all cases: in vivo
[1] = tested on: gene pathways in mouse brain (prefrontal cortex); experiment: RNA sequencing of prefrontal cortex after supplemented metabolites: differentially expressed gene pathways; conditions: two weeks supplementation
Procedure: Transcriptomics data (RNA sequencing) was collected from the prefrontal cortex of 12-week old mice after consuming a low, medium, or high dosage of supplemented metabolites for two weeks. RNA sequencing used brain tissue to evaluate possible correlation between changes in relative changes in gene transcription with changes in behavior. The number of differentially expressed gene pathways at significance level of 0.05, 0.1, and 0.15 was determined (Table 1).

mice [2] = experiment: Habituation over three days (distance traveled, time in center, ambulatory time); conditions: for Habituation exploration / Habituation time in center: behavioral assay summary, Yes/No; for habituation: total distance traveled and exploratory activity: over three days
Procedure: (§1) Mice were fed 80% of their total food as non-supplemented food (chow) for 4 days. For the next two weeks, mice were fed 80% of their total food as non-supplemented food and the remaining 20% was supplemented with selected metabolites(s). Mice were fed on food supplemented with various metabolites including 5-dodecacenoate (5D), glycodeoxycholate (GDC), ursodeoxycholate (UDC), or a control food lacking a supplement (CTL). Mouse behavior was tested using an elevated plus maze (FIG. 13), a three-chamber sociability test, and tracking wheel usage. During testing, mice were fed 80% of their total food as non-supplemented food and the remaining 20% was supplemented with the selected metabolites(s).
Habituation over was tested with the […] (FIG. 16). […] Significance was tested with an ANOVA test.
Habituation was measured by tracking the amount of time spent in the center of the chamber (FIG. 18).
Active time was also measured as total ambulatory time and center ambulatory time.

mice [3] = experiment: Mouse wheel distance traveled; conditions: for night-time activity: after administering metabolites
Procedure: as §1
Lastly, mice fed with food supplemented with various metabolites were given a mouse wheel and distance traveled was tracked.

mice [4] = experiment: Elevated plus maze (anxiogenic behavior); conditions: for EPM closed arms / EPM open arms: behavioral assay summary, Yes/No
Procedure: as §1
Anxiogenic behavior was tested by tracking time spent in closed arms of an elevated plus maze. Control mice were fed food lacking a supplement.

mice [5] = experiment: Three-chamber sociability test; conditions: behavioral assay summary, Yes/No
Procedure: as §1
Additionally, the effect of supplementation with the metabolites on sociability was measured with a three-chamber sociability test (FIG. 21). This chamber tested for responses to social novelty.

[6] = significance level 0.05, 12-week old mice
[7] = significance level 0.1, 12-week old mice
[8] = significance level 0.15, 12-week old mice
[9] = treatment average vs 5D Average
[10] = treatment average vs Control Average

Structure (SMILES)	Differentially Expressed Gene Pathways in Mouse Brain [1, 6]	Differentially Expressed Gene Pathways in Mouse Brain [1, 7]	Differentially Expressed Gene Pathways in Mouse Brain [1, 8]	Habituation exploration (mice [2])	Habituation time in center (mice [2])	habituation: total distance traveled and exploratory activity (mice [2])	night-time activity (mice [3])	Adjusted p value, comparison of average distance traveled (mice [3]; [9])	Adjusted p value, comparison of average distance traveled (mice [3]; [10])	EPM closed arms (mice [4])	EPM open arms (mice [4])	time spent in closed arms of elevated plus maze (mice [4]; vs control mice)	Sociability (mice [5])	Adjusted p value, comparison of average distance traveled (mice [3]; treatment average vs GDC Average)	active time in the closed arms of the maze (mice [4]; vs control mice)
C[C@H](CCC(=O)NCC(=O)O)[C@H]1CC[C@H]2[C@@H]3CC[C@@H]4C[C@H](O)CC[C@]4(C)[C@H]3C[C@H](O)[C@]12C [GDC, glycodeoxycholate]	153	277	291	Yes	No	lower total distance traveled and exploratory activity over three days	night-time activity increased	0.2762	0.0000114*	No	No	did not spend significantly more time in closed arms than control mice	No	–	–
N[C@@H](CCC(=O)O)C(=O)O [Glutamate, glutamate]	0	0	107	–	–	–	–	–	–	–	–	–	–	–	–
CC(=O)N[C@@H](CCC(=O)O)C(=O)O [N-acetyl-L-glutamate]	82	145	177	–	–	–	–	–	–	–	–	–	–	–	–
C[C@H](CCC(=O)O)[C@H]1CC[C@H]2[C@@H]3[C@@H](O)C[C@@H]4C[C@H](O)CC[C@]4(C)[C@H]3CC[C@]12C [UDC, ursodeoxycholate]	0	0	104	No	No	did not decrease the total distance traveled on day three compared to day two	night-time activity increased	0.00000000	0.00000000*	Yes	No	spent less time in the closed arms of the maze	No	0.0000141	lower active time in the closed arms of the maze than control mice
